# From patent US20060263345A1, “Butyrylcholinesterase variant polypeptides with increased catalytic efficiency and methods of use” (priority 2003, published 2006)
# Key:
# [1] = system: cocaine toxicity; settings: rat, infusion of cocaine at 1 mg/kg/min, catecholamine levels standardized; cited from earlier work
# [2] = system: Sprague Dawley rats; experiment: pilot studies, lethal dose of infused cocaine; settings: rat, i.v. infusion
# Procedure: Briefly, unilateral/bilateral jugular cannulations were performed under isoflurane anesthesia (max. 20 min) on 350 g male :Sprague Dawley®SD® rats (Harlan Sprague Dawley, Inc.) The animals were allowed to recover for 24 hours before studies commenced. […] One minute later, the cannula was connected to an infusion pump (Harvard Apparatus) and cocaine (HCI salt) was infused at 6 mls/hr (2 mg/kg/min) for 15 minutes corresponding to a total dose equal to 30 mg/kg. The time-to-onset for slight convulsions, strong convulsions and death were recorded. […] In a second series of studies, 0.5 mg/kg of the A328W/Y332M/S287G/F227A variant was administered at various time points after initiation of the 30mglkg cocaine infusion and gross observations recorded.
smiles,measurement,setting,value
COC(=O)[C@H]1[C@@H](OC(=O)c2ccccc2)C[C@@H]2CC[C@H]1N2C [cocaine],LD50,[1],10 mg/kg
same,LD90,[1],16 mg/kg
same,lethal dose of cocaine,[2],approximately 25 mg/kg
